For data set [1], the system named is patients with ocular disease (Geographic Atrophy, AMD). The note with it: cited from earlier work; for benefit in trials: GA trials, systemic or IVT administered agents; for Status (clinical trial outcome): Table 1, ocular disease indication.
Data set [2] concerns the target C5 (Homo sapiens, UniProt P01031). The note with it: report from publications; read-out: affinity for C5; cited from earlier work.
The conditions of data set [3]: FDA prescribing information; cited from earlier work.
The subject of data set [4] is GA patients. Particulars: 2 mg q4w, cited from earlier work.
Data set [5] relates to patients with geographic atrophy. In words: CHROMA + SPECTRI Phase 3 trials: change in GA area from baseline. The data set is classed as in vivo, human. How it is done:
The CHROMA & SPECTRI Phase 3 trials evaluated lampalizumab (anti-fD fab) intravitreally administered IVT 10 mg at q4w or q6w intervals compared to sham (untreated) controls. Both studies had identical designs, and each enrolled a total of about 900 patients (300 per cohort, lampa q4w, lampa […], etc). The trial is described in Holz et al. (Holz F G et al. “Efficacy and Safety of Lampalizumab for Geographic Atrophy Due to Age-Related Macular Degeneration: Chroma and Spectri Phase 3 Randomized Clinical Trials”. JAMA Ophthalmol. 2018; 136 (6): 666-677)
(§1) In addition to the overall efficacy analyses, a biomarker sub study was conducted with about 100 patients (of which 33 from sham, q4w, q6w) with biomarker sampling at baseline and Month 6. Multiple complement factors were measured, including CFB, Bb, FD, C3, C3b/iC3b/C3d, C4, C4b/C4c. Results were described in Edmonds et al. Individual data points for the measured ocular proteins were reported in figures (Edmonds at FIG. 4 and Supplemental FIGS. 4-10) in addition to cohort level metrics (baseline and efficacy at 6 months).
As “control” prediction methodology, the pooled progression for sham, q4w, and q6w at 12 months as reported in Edmonds of the overall Phase 3 was divided by 2 to estimate the progression of a cohort of any patients at 6 months.

For data set [6], the system named is Bb in aqueous humor. Description: CHROMA/SPECTRI Phase 3 biomarker substudy: response to lampalizumab by aqueous humor Bb. The data set is classed as in vivo, human. The note with it: Month 6. How it is done: Patient level data for patients in the sham, q4w, and […] lampalizumab Phase 3 biomarker study, as reported by Edmonds et al (Edmonds R. et al., “Complement pathway Inhibition by Lampalizumab: Analysis of Data From Chroma and Spectri Phase III Clinical Trials.” Ophthalmol Sci. 2023; 3 (3): 100286. Published 2023 Feb. 13), in Supplemental FIG. 6 of Bb (ng/mL) in aqueous humor was measured and converted into numerical data points. To verify accuracy of the plotted data points, mean and standard deviation was calculated using the plotted data and compared to the reported mean and standard deviation in Edmonds et al. Values were in good agreement.
as §1
In Edmonds, the ratio of Bb/CFB was used to assess complement activity and concluded that dosing with higher concentrations or more frequent dosing would not result in greater inhibitor of the complement pathway as there is no meaningful correlation between Bb: CFB ratio and percent change in aqueous humor from baseline to week 24.
To reassess the data & results described in Edmonds according to the categorization described herein, the data points for Bb at baseline and Month 6 in Supplemental FIG. 6 were converted into numerical values based on measurement relative to the axes and categorized as follows:
• 1. […] Ineffective lampalizumab administration-Hyper baseline, hyper at Month 6 and <50% reduction in Bb at Month 6 from baseline Bb • 3.

Data set [7] concerns patients with geographic atrophy. Particulars: cited from earlier work.
Data set [8] deals with Bb in aqueous humor. Particulars: essentially all individual patients treated, q4w and q6w (Edmonds at FIG. 4B); cited from earlier work.
In data set [9] the test system is GA patients. Particulars: implication of FDA approved prescribing information; cited from earlier work.
For data set [10] the following is noted: in vivo; cited from earlier work.
Data set [11] deals with complement component Ba in aqueous humor. Description: Real world SYFOVRE study: response category by aqueous humor Ba. The data set is classed as in vivo, human. How it is done: (§2) Study Description: This study included GA anatomic (OCT, Specralis) & treatment administration data (treatment, injection date) and aqueous humor (AH) samples from 9 eyes of 5 patients with bilateral GA without CNV, treated with SYFOVRE® per USPI at a private retinal practice in the United States of America. The study was performed in accordance with the tenets of the Declaration of Helsinki and the Medical Research Involving Human Subjects Act (WMO) and was approved by the local Institutional Review Board. Written informed consent was obtained from all participants.
Assessment of biomarkers of AH concentration of complement component Ba. Aqueous humor sampling of the eyes was conducted by anterior chamber paracentesis using a 30-gauge needle attached to a 1-ml syringe. Samples of up to 150 μl were obtained at baseline (prior to first administration of SYFOVRE®) and after the first, second, or third administration of SYFOVRE®. Quantitative measurement of AH Ba was carried out using a direct capture immunoassay (Micro Vue; Qidel Corporation). Samples were transferred to sterile polypropylene tubes immediately after collection and stored at −80° C. until analysis was performed.
Categorization of eyes into hyper/homeo/hypo groups was performed: Hyper was ≥20 ng/mL Ba, Homeo was <20 to ≥10 ng/mL Ba, Hypo was <10 ng/mL Ba.
Categorization of response to SYFOVRE® based on biomarker criteria was performed.

Data set [12] concerns eyes of patients with bilateral GA without CNV. Description: Real world SYFOVRE study: area of RPE loss by OCT. The data set is classed as in vivo, human. Particulars: post treatment (70 days). How it is done: as §2
For each individual eye, assessment of GA progression between baseline and the measurement of the post treatment ocular proteomics was performed based on OCT images taken at the relevant visits (baseline and visits when AH sample taken). OCT analysis of retinal atrophy was performed using automated measurement of area of RPE loss, with a foveally centered, ETDRS matched analysis performed by RetinAI. Given variability in image centering and quality between visits, for a given eye, only those regions of the retina that had consistent OCT imaging & analysis coverage at each relevant timepoint were used to calculate change in area of retinal atrophy.

Data set [13] deals with patients with bilateral GA. The note with it: FILLY post hoc analysis (Fu), 12 months; cited from earlier work.
Data set [14] relates to patients with bilateral GA. Description: FILLY Phase 2 study eye vs. fellow eye analysis. The data set is classed as in vivo, human. The note with it: baseline to month 12. As to the method: Apellis sponsored FILLY was a phase 2 trial evaluating efficacy of intravitreal pegcetacoplan complement C3 and C3b inhibitor on slowing GA progression, which included only one eye per participant in the treatment group.
A post hoc analysis of phase 2 FILLY trial data comparing study (treated monthly, treated every other month and sham-treated) and fellow (untreated) eyes in a split-person study design was performed and the results published (Fu et al, 2023, hereinafter “Fu”). This analysis included 288 eyes from 144 patients with bilateral GA from the FILLY phase 2 trial (Clinical Trials identifier: NCT02503332). Only patients with bilateral GA and without evidence of choroidal neovascularization in either eye were included. Patient study eyes were treated with sham injections or with pegcetacoplan monthly (PM) or every other month (PEOM) for 12 months. […] Fu specifically interpreted the data as showing “on an individual patient level, changes in GA area for the fellow eye exceeded those in the study eye for most patients in the pegcetacoplan treatment groups, while changes in the sham group approached randomness between study and fellow eyes.” Fu et al. (Fu D J et al., “Evaluating the Effects of C3 Inhibition on Geographic Atrophy Progression from Deep-Learning OCT Quantification: A Split-Person Study”. Ophthalmol Ther. 2023). […]

In data set [15] the target is C3 (Homo sapiens, UniProt P01024). Particulars: report from publications; read-out: affinity for C3; cited from earlier work.
Chain of C3 (P01024 23-1663): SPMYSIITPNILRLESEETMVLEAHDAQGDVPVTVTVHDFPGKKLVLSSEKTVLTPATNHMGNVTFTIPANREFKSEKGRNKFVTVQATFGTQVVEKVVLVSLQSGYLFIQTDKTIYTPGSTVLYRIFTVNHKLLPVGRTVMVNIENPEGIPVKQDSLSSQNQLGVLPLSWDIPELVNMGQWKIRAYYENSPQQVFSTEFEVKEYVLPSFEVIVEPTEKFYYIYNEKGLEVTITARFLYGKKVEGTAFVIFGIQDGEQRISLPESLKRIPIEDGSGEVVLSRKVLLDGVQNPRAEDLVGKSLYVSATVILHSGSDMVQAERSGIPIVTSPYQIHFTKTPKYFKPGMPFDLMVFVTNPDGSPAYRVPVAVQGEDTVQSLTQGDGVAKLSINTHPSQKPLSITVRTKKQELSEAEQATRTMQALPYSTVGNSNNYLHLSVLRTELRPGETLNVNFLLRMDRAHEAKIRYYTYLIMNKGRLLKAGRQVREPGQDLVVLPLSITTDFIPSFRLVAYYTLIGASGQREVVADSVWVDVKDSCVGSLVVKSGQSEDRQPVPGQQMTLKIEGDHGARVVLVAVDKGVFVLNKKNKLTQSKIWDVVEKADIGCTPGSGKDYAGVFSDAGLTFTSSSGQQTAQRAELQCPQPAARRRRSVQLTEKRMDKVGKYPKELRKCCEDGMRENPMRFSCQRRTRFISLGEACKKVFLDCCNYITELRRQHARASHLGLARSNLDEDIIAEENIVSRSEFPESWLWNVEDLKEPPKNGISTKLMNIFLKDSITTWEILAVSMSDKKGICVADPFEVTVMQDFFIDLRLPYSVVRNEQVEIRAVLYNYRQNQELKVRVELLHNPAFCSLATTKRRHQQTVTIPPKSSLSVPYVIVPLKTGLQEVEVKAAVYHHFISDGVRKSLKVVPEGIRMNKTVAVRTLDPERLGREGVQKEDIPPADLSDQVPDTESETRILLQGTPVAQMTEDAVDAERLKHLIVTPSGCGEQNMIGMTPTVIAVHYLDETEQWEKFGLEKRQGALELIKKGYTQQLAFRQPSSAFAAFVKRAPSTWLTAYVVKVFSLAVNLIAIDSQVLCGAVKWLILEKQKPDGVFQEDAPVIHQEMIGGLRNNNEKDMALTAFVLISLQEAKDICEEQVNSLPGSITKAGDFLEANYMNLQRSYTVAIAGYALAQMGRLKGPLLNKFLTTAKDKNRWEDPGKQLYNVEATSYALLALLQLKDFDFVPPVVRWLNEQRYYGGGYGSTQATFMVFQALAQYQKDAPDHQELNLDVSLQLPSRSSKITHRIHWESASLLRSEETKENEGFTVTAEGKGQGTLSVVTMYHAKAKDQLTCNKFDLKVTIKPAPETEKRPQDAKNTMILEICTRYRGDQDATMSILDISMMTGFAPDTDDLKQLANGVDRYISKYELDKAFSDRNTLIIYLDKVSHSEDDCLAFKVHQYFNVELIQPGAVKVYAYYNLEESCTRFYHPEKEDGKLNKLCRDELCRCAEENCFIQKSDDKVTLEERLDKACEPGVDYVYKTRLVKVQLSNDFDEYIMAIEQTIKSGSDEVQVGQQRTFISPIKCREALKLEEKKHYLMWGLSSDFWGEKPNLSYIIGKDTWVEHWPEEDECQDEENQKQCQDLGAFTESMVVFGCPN

Where two headings read alike, the source gives them in different places.

Chain of C5 (P01031 19-1676): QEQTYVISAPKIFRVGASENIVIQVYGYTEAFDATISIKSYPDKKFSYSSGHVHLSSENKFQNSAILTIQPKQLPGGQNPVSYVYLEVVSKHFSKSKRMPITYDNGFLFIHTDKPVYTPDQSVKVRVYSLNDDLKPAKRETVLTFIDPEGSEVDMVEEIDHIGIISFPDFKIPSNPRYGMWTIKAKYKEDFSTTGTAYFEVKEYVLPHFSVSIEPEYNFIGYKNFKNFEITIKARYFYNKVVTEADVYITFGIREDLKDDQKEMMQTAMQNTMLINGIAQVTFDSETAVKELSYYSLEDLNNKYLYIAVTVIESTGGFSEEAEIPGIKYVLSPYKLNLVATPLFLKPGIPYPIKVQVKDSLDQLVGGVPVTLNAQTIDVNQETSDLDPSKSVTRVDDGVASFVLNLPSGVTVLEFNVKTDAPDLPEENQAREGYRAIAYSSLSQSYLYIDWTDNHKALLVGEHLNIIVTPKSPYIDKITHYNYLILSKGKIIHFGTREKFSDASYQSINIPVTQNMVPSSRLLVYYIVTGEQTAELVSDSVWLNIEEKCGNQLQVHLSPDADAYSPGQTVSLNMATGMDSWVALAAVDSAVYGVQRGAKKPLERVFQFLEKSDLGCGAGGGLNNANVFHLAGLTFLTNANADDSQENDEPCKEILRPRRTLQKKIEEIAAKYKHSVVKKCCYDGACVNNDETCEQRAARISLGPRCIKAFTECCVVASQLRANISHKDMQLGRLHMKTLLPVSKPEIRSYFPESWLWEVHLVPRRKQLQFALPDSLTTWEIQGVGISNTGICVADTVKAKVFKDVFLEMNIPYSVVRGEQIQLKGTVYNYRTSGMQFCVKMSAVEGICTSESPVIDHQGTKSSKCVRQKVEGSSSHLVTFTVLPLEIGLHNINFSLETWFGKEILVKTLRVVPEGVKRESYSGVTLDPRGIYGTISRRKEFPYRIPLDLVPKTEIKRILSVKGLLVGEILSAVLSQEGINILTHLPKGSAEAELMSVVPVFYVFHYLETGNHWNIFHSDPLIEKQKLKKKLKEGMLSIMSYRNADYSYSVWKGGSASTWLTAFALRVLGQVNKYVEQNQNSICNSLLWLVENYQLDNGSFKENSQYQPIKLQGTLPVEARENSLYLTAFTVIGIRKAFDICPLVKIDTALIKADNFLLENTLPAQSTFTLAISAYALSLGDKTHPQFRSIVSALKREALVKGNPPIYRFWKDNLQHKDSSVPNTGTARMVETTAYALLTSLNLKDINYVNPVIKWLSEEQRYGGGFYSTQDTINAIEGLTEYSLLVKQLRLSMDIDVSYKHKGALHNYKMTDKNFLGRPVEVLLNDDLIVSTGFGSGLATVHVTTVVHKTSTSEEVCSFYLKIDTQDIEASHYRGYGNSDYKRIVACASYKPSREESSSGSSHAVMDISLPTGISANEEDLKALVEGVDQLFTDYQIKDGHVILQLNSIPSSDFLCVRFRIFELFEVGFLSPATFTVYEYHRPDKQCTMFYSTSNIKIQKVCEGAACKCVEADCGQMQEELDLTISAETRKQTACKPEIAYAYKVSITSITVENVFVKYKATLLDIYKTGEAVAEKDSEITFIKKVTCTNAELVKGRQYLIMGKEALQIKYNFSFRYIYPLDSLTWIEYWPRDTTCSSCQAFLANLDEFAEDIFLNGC

In the case of `[2H]C([2H])([2H])C(/C=C/C=C(C)/C=C/C1=C(C)CCCC1(C)C)=C\COC(C)=O` [Alkeus], the benefit in trials result in data set [1] is “failed to show benefit”.

In the case of `CC(=O)c1nn(CC(=O)N2C[C@H](F)C[C@H]2C(=O)Nc2cccc(Br)n2)c2ccc(-c3cnc(C)nc3)cc12` [danicopan], in data set [1], the benefit in trials entry is given as “failed to show benefit”.

As to avacincaptad pegol [IZERVAY®], the Kd in data set [2] is about 3 nM. The “geometric mean half-life of elimination (t1/2)” value in data set [3] was 288 h. Moreover, the entries for the “reduction in mean rate of GA growth vs. sham at 12 months” value in [4] (GATHER 1) and in [4] (GATHER 2) were 27.4% and 14%, respectively.

With “lampalizumab: anti-fD fab, intravitreally administered 10 mg at q4w or q6w”, in data set [5] (Q4w), the “Change in GA area from baseline: (Edmonds et al) Biomarker pooled cohort at 48 w divided by 2” value is 1.08 and the “Change in GA area from baseline: CHROMA + SPECTRIA Pooled topline extrapolate to 24 w” value was 1.027. In addition, in data set [5] (Q6w), the “Change in GA area from baseline: (Edmonds et al) Biomarker pooled cohort at 48 w divided by 2” value was found to be 1.03 and the “Change in GA area from baseline: CHROMA + SPECTRIA Pooled topline extrapolate to 24 w” value is reported as 1.028. Further, the “Post treatment response: Effective (number of eyes)” value in data set [6] (Q4w, 35 eyes, 14 hyper) amounted to 6. In addition, the “Of Hyper; Effective” value in [6] (Q4w) amounted to 43%. In [6] (Q6w, 32 eyes, 10 hyper), the “Post treatment response: Effective (number of eyes)” value came to 2. For the same molecule, the “Of Hyper; Effective” value in data set [6] (Q6w) worked out at 20%. In data set [1], the benefit in trials result was “failed to show benefit” and the “Status (clinical trial outcome)” value is listed as “failed to meet”. Also, in [7] (Q4w), the “Change in GA area from baseline: (Edmonds et al) Biomarker pooled cohort at 48 w” value was 2.16, the “Change in GA area from baseline: Actual Data from (Edmonds) Biomarker pooled cohort at 24 w” value is on record as 1.0 and the “Change in GA area from baseline: CHROMA + SPECTRI Pooled topline at 48 weeks” value was 2.054. In addition, in data set [7] (Q6w), the “Change in GA area from baseline: (Edmonds et al) Biomarker pooled cohort at 48 w” value was 2.06, the “Change in GA area from baseline: Actual Data from (Edmonds) Biomarker pooled cohort at 24 w” value is 1.04 and the “Change in GA area from baseline: CHROMA + SPECTRI Pooled topline at 48 weeks” value was 2.055. Besides, in data set [8], the “Bb/CFB in aqueous humor” value is reported as “decreases in Bb/CFB”.

pegcetacoplan [SYFOVRE®]: the “expected average efficacy, slowing for all indicated GA patients” value in data set [9] was 20%. The “geometric mean half-life of elimination (t1/2)” value in data set [10] was 108 h. Further, the “Response Category” value in [11] (Eye ID 001, OD, baseline category Hyper) is “Effective Complement Inhibition”; in data set [11] (Eye ID 002, OS, baseline category Hypo), “Not”; in data set [11] (Eye ID 003, OD, baseline category Hyper), “Not”; in data set [11] (Eye ID 004, OS, baseline category Hyper), “Not”; in data set [11] (Eye ID 005, OD, baseline category Homeo) it was “Not”; in data set [11] (Eye ID 006, OS, baseline category Homeo), “Not”. Further, the “Response Category” value is reported as “Not” in data set [11] (Eye ID 007, OD, baseline category Hypo); “Not” in data set [11] (Eye ID 008, OS, baseline category Hypo); “Not” in data set [11] (Eye ID 009, OD, baseline category Hypo). Besides, the “RPE depletion area post treatment” value worked out at 6.45 mm^2 in data set [12] (Eye ID 001, OD, hyper baseline, effective complement inhibition, baseline 6.57 mm^2) and 6.75 mm^2 in [12] (Eye ID 002, OS, hypo baseline, baseline 5.8 mm^2). The “spatial GA progression compared to untreated fellow eyes” value in data set [13] is on record as “reduction in spatial GA progression”. In addition, the “>=50% slowing study vs. fellow, %” value is given as 20% in data set [14] (PEOM (every other month), 35 eyes) and 53% in data set [14] (PM (monthly), 36 eyes). Further, the Kd in data set [15] was 15 nM.

B1: Tesidolumab: an antibody vs. C5 (antibody, chains of the INN, looked up, V domains shown)
VH: EVQLVQSGAEVKKPGSSVKVSCKASGGTFSSYAISWVRQAPGQGLEWMGGIGPFFGTANYAQKFQGRVTITADESTSTAYMELSSLRSEDTAVYYCARDTPYFDYWGQGTLVTVSS
VL: SYELTQPLSVSVALGQTARITCSGDSIPNYYVYWYQQKPGQAPVLVIYDDSNRPSGIPERFSGSNSGNTATLTISRAQAGDEADYYCQSFDSSLNAEVFGGGTKLTVL
Regarding B1, in data set [1], the “Status (clinical trial outcome)” value was “Phase II failed”.

(Values after patent publication US20260185992A1, “METHODS FOR SELECTING AND TREATING PATIENTS WITH RETINAL DISEASE BASED ON COMPLEMENT PATHWAY HYPERACTIVITY” (Oak Bay Biosciences Inc., priority 2024, published 2026).)
